# Data reported in paper PMC10781839 (European Journal of Drug Metabolism and Pharmacokinetics, 2023).
# “Also recorded” adds a separate entry of the source. Read-outs that look alike come from different tables or passages of the source.
# How the values were obtained:
# CYP3A4 = details: cited from earlier work; for CYP3A4 inhibition in vitro: HCQ metabolites
# CYP2D6 [1] = details: cited from earlier work
# CYP2D6 [2] = details: cited from earlier work; remark: listed apart in the source
# CYP3A = details: for Midazolam/1-OH-midazolam AUC2–4 h ratio: pantoprazole group
# [3] = cited from earlier work
# CYP2D6 [4] = details: single 400 mg HCQ, short term, yohimbine probe
# [5] = cited from earlier work; for Peak serum concentration: pantoprazole 40 mg
# recombinant human CYP3A4 = recombinant human CYP3A4 (Homo sapiens, UniProt P08684); assay: P450-Glo CYP3A4 Assay, inhibition by pantoprazole; type: in vitro ADME; details: pantoprazole 100 µM, in vitro
# [6] = cited from earlier work; remark: listed apart in the source
# [7] = after 8-day course of 400 mg HCQ twice daily, seven healthy volunteers
# [8] = all participants, after HCQ intake (± pantoprazole)
# [9] = pantoprazole subgroup, HCQ plus pantoprazole
# recombinant human CYP3A4, sequence (P08684 whole entry): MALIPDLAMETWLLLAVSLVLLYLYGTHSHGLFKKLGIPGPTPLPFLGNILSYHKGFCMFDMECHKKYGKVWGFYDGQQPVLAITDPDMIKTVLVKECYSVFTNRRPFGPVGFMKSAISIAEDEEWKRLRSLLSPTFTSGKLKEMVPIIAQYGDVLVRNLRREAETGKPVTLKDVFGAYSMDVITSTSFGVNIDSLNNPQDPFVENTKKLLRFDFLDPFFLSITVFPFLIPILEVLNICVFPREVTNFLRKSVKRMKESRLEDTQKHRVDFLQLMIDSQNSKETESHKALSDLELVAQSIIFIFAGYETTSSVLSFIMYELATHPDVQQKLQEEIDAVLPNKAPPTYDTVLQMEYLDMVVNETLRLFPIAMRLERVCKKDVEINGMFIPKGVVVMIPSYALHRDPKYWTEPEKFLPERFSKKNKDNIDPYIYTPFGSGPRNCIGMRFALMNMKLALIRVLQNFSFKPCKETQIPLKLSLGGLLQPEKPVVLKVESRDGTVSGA
smiles,measurement,setting,value
CC(CCCN)Nc1ccnc2cc(Cl)ccc12 (stereo not shown) [didesethylchloroquine],CYP3A4 inhibition in vitro,CYP3A4,time-dependent inhibitors of CYP3A4
COc1ccc2c(c1)[C@]13CCCC[C@@H]1[C@H](C2)N(C)CC3 [dextromethorphan],Change of urinary metabolic ratio of dextromethorphan,CYP2D6 [1]; after 8-day course of 400 mg HCQ twice daily,did not show any significant change
COCCc1ccc(OCC(O)CNC(C)C)cc1 (stereo not shown) [metoprolol],Increase of metoprolol AUC,CYP2D6 [1]; [7],65%
same,Increase of metoprolol Cmax,CYP2D6 [1]; [7],72%
"CCN(CCO)CCCC(C)Nc1ccnc2cc(Cl)ccc12 (stereo not shown) [HCQ, hydroxychloroquine]",CYP2D6 inhibition in healthy volunteers,CYP2D6 [1]; interaction with metoprolol and dextromethorphan,weakly inhibits CYP2D6
same,CYP2D6 inhibition in vitro,CYP2D6 [2],"competitively and reversibly inhibit CYP2D6 activity, albeit only mildly"
same,CYP3A4 inhibition in vitro by parent drug,CYP3A4,did not support the hypothesis that the parent drug HCQ inhibits CYP3A4 activity
same,Inhibition of CYP3A metabolism in vivo,"CYP3A; single 400 mg HCQ, short term, midazolam probe",did not inhibit
same,Time until steady state is reached,[3],4 months
same,Inhibition of CYP2D6 metabolism in vivo,CYP2D6 [4],not a clinically relevant CYP2D6 inhibitor; also recorded: did not inhibit
CC(CCCNCCO)Nc1ccnc2cc(Cl)ccc12 (stereo not shown) [desethylhydroxychloroquine],CYP3A4 inhibition in vitro,CYP3A4,time-dependent inhibitors of CYP3A4
"OCc1ncc2n1-c1ccc(Cl)cc1C(c1ccccc1F)=NC2 [1-OH-midazolam, 1-hydroxy-midazolam]",Increase of 1-OH-midazolam AUC2–4 h vs baseline,CYP3A; [8],17%
same,Increase of 1-OH-midazolam AUC2–4 h vs baseline,CYP3A; [9],17.5%
COc1ccnc(C[S+]([O-])c2nc3ccc(OC(F)F)cc3[nH]2)c1OC (stereo not shown) [pantoprazole],Time to peak concentrations after oral administration,[5],2 to 3 h
same,Peak serum concentration,[5]; converted from µg/ml,6.5 µM
same,Peak serum concentration,[5],2.5 µg/mL
same,Inhibition of CYP3A4-mediated midazolam metabolism in vitro,CYP3A4,inhibits CYP3A4-mediated midazolam metabolism at relatively high concentrations
same,Local concentration in the gut,"CYP3A; 40 mg pantoprazole with approximately 200 ml of fluid, estimate",exceeded 500 µM
same,Reduction of CYP3A activity,recombinant human CYP3A4,75%
Cc1ncc2n1-c1ccc(Cl)cc1C(c1ccccc1F)=NC2 [midazolam],Delay of peak plasma concentration vs fasting state,[6]; oral standard dose 1 h after a meal,0.9 h
same,Oral bioavailability,[6]; therapeutic or microdoses,approximately 25%
same,Increase of midazolam AUC2–4 h vs baseline,CYP3A; [8],25%
same,Change of midazolam AUC2–4 h vs baseline,"CYP3A; control subgroup, HCQ alone",no change
same,Midazolam/1-OH-midazolam AUC2–4 h ratio,CYP3A; after hydroxychloroquine plus pantoprazole,3.60 ± 1.56
same,Midazolam/1-OH-midazolam AUC2–4 h ratio,CYP3A; baseline,3.03 ± 1.59
same,Increase of midazolam AUC2–4 h vs baseline,CYP3A; [9],46%
CCNCCCC(C)Nc1ccnc2cc(Cl)ccc12 (stereo not shown) [desethylchloroquine],CYP2D6 inhibition in vitro,CYP2D6 [2],"competitively and reversibly inhibit CYP2D6 activity, albeit only mildly"
same,CYP3A4 inhibition in vitro,CYP3A4,time-dependent inhibitors of CYP3A4
